Results reported in patent US6710066B2, “Photochemotherapeutic method using 5-aminolevulinic acid and other precursors of endogenous porphyrins” (priority 1989, dated 2004).
Like-named read-outs stand apart in the source and are kept apart here.

How the values were obtained:
L. donovani = assay: PpIX accumulation on exposure to exogenous ALA, Leishmania; settings: exposed to exogenous ALA
P. yoelii [1] = assay: ALA-induced fluorescence within erythrocytes parasitized by P. yoelii, mice given ALA
[2] = system: Dermatophyte (Trichophyton Species)
acne lesions = assay: PpIX induced fluorescence in subjects with truncal acne after topical ALA; format: in vivo, human
Method: Evaluation of PpIX induced fluorescence in 8 subjects with mild to moderate truncal acne was performed. Bacterial infections are frequently associated with lesions of acne, e.g., P. acne. Following evaluation of baseline acne lesion fluorescence, ALA solution 10 and 20% was applied to 10 5 cm^2 sites on the chest or back of volunteers and evaluated at times 0, 3, 8 and 24 hours after ALA application. One site of each concentration was also occluded with opaque film for 3 hours and evaluated at similar time points for comparison with unoccluded sites. Fluorescence of both acneiform lesions as well as surrounding normal skin was assessed visually using a 4 point grading system (0=none, 4=extremely severe) and documented photographically.

[3] = very large doses; cited from earlier work
[4] = system: Enterobius vennicularis (pinworm); assay: PpIX accumulation on exposure to exogenous ALA, pinworm; settings: exposed to exogenous ALA
[5] = system: Candida albicans, Candida glabrata, Cryptococcus neoformans, Penicillium species, Aspergillus niger, Aspergillus fumigatus, Alternaria species, Saccharomyces …; assay: In vitro PpIX fluorescence of yeast and fungi treated with ALA; format: cell-based; settings: ALA 1 mM to 100 mM or 20-80% solutions in water
Method: Clinical isolates of Candida albicans, Candida glabrata, and Cryptococcus neoformans and environmental isolates of Penicillium species, Aspergillus niger, Aspergillus fumigatus, and Alternaria species and Saccharomyces cerivisiae (brewer's yeast) obtained from the clinical microbiology laboratories of Kingston General Hospital, Kingston, Ontario, Canada were used. The organisms were plated, and during rapid growth were treated with various concentrations of ALA varying from 1 mM to 100 mM by flooding or by using diffusion wells in the agar, while the isolates of Penicillium and Aspergillus were treated with 40% or 80% solutions of ALA in water and the Penicillium species, Alternaria species, Aspergillus niger and Aspergillus fumigatus were treated with 20% ALA in water via diffusion wells.

[6] = system: endometrial and myometrial samples; assay: Fluorescence of endometrial and myometrial samples incubated with ALA; format: cell-based; settings: 1 mM ALA
Method: The procedures of Example 1 (U.S. Pat. No. 5,422,093) were repeated with 1, 2, 3, 4 and 5 hour incubation periods using a level of 1 mM of ALA.

[7] = system: Lumbricus terrestris (dewworm); assay: PpIX accumulation on exposure to exogenous ALA, dewworm; settings: exposed to exogenous ALA
P. yoelii [8] = assay: In vitro incubation of blood, spleen or marrow cells from P. yoelii infected mice with ALA; format: cell-based, mouse
Method: For the in vitro studies, no ALA was given to the donor mice. Two drops of whole blood were withdrawn from the tail of each mouse and placed in a 35 mm petri dish containing 3 cc of RPMI 1640 without phenol red.
i) a petri dish contained infected whole blood with […] ALA in RPMI.
ii) a second petri dish contained infected whole blood plus RPMI but not ALA.
iii) a third petri dish contained normal whole blood cells with 5 mM ALA in RPMI.
iv) a fourth petri dish contained normal whole blood cells with RPMI but not ALA.
All petri dishes were incubated at 37 Celsius and room air environment. Samples (0.5 cc) were taken at regular intervals from these incubated petri dishes to be analyzed in the flow cytometer to follow accumulation of PpIX.

[9] = system: endometrium (uterine horns); assay: Long term photodynamic endometrial ablation in rats; format: in vivo, rat
Method: Rats were divided into 2 groups (6 and 7 rats/group) and their uterine horns were injected with 4 or 8 mg ALA. Example 1, of U.S. application Ser. No. 08/082,113, filed Jun. 21, 1993 (U.S. Pat. No. 5,422,093), was repeated with the exception that all rats were exposed to light and the time from ALA administration to breeding was extended from 10-20 days to 60-70 days. All other procedures were identical to Example 1.
In the groups of rats (n=7) treated with 8 mg ALA 2 of 7 became pregnant in ALA treated uterine horns compared with 7 of 7 pregnancies in the saline treated horns.
In order to show normal uterine histology of a nonpregnant uterine horn contralateral to a pregnant uterine horn one uterine horn was ligated at its distal end prior to breeding. At gestation of 10-15 days nonpregnant uterine horns were harvested and histologically processed. The uterine mucosa was lined with columnar epithelium and there was hypertrophic infolding of endometrial tissue with tortuous glands.

P. chabaudi [10] = assay: In vitro photosensitization of P. chabaudi, cells of infected mice incubated with ALA; format: cell-based, mouse
P. chabaudi [11] = system: P. chabaudi
Text: These examples involve the murine malarial parasites Plasmodium yoelii (lethal strain) and Plasmodium chabaudi (non-lethal strain) as models for human malaria.

[12] = system: endometrium and myometrium; assay: Endometrial fluorescence in vivo following topical application of ALA in the non-human primate; design: species or system rhesus monkey; settings: 50 mg ALA into uterine lumen, hysterectomy 3 hours later
Method: 50 mg of ALA was injected into the uterine lumen of an adult, healthy, female rhesus monkey following exposure of the uterus at laparotomy. A hysterectomy was performed 3 hours later and cross sectional slices incorporating endometrial and myometrial tissue were taken from the uterine specimen. These slices were subjected to examination by fluorescence microscopy as in Example 2 and 3 above.

[13] = 250 mg/kg ALA intraperitoneal, heavily parasitized mice
[14] = ALA injected into infected mice
[15] = exposed to exogenous ALA, Example 10 list
[16] = ALA solution 10 and 20%, unoccluded sites
[17] = sites occluded with opaque film for 3 hours
[18] = cells incubated with ALA in vitro
[19] = ALA by intraperitoneal injection
[20] = ALA in vivo, then photoactivating light

NCC(=O)CCC(=O)O [ALA, 5-Amino-4-oxopentanoic acid]
accumulation of fluorescing concentrations of PpIX (L. donovani): ALA-induced fluorescence
protoporphyrin fluorescence of pellet and supernatant after saponin hemolysis (P. yoelii [1]; 250 mg/kg ALA IP, 4 hours, excitation 410 nm, emission 635 nm): Protoporphyrin fluorescence was detected only in Plasmodial pellet derived from infected mice given ALA
fluorescence microscopy of blood/spleen cells (P. yoelii [1]; 250 mg/kg ALA intraperitoneal): Red fluorescence developed within parasitized erythrocytes
fluorescence flow cytometry of peripheral blood and spleen erythrocytes (P. yoelii [1]; [13]): developed red fluorescence
spectrophotofluorometry of blood and spleen cell pellets (P. yoelii [1]; [13]): Protoporphyrin was the only fluorophore that was identified
erythrocyte fluorescence by flow cytometer (accumulation of PpIX) (P. yoelii [1]; 250 mg/kg ALA intraperitoneal, tail blood at intervals): Only infected mice given ALA developed fluorescence in their erythrocytes
PpIX accumulation in non-infected erythrocytes and leukocytes (P. yoelii [1]; [14]): significant concentrations of PpIX did not accumulate
PpIX accumulation in plasmodia within erythrocytes (P. yoelii [1]; [14]): accumulated in many of the plasmodia
accumulation of fluorescing concentrations of PpIX (P. yoelii [1]; [15]): ALA-induced fluorescence
appearance of toe upon completion of treatment ([2]; human, in vivo): erythematous and somewhat edematous
subjective response during light exposure ([2]; human, in vivo): itching, stinging, and a sensation of mild burning
clinical outcome of fungal infection ([2]; over the next few months after one treatment): all clinical evidence of the fungal infection vanished
PpIX fluorescence by 24 hours (acne lesions; [16]): weak or no fluorescence
dose dependence of increase in PpIX fluorescence (acne lesions; [16]): dose dependent
specificity of PpIX fluorescence (acne lesions; [16]): specific for acne lesions and spared normal surrounding skin
time of maximum PpIX fluorescence (acne lesions; [16]): 8 h
PpIX fluorescence at 24 hours (acne lesions; [17]): remained present at 24 hours
distribution of PpIX fluorescence (acne lesions; [17]): developed PpIX fluorescence in both acne lesions and normal surrounding skin
effect on motor nerve conduction velocity [3]: transient decrease in motor nerve conduction velocity
accumulation of fluorescing concentrations of PpIX [4]: ALA-induced fluorescence
accumulation of photosensitizing concentrations of PpIX [4]: ALA-induced photosensitization
PpIX accumulation in molds and yeasts [5]: Positive PpIX accumulation
incubation time of maximum fluorescence in endometrial samples [6]: 4 h
fluorescence in myometrial samples ([6]; 1-5 hour incubation): No significant fluorescence
fluorescence in endometrial samples ([6]; incubated for 2 hours): No significant fluorescence
accumulation of fluorescing concentrations of PpIX [7]: ALA-induced fluorescence
accumulation of photosensitizing concentrations of PpIX [7]: ALA-induced photosensitization
PpIX fluorescence of whole blood incubated with ALA, flow cytometer (P. yoelii [8]; ALA in RPMI 1640 (5 nM infected, 5 mM normal blood as printed), 37 Celsius): Only cells from infected mice developed PpIX fluorescence when incubated with ALA
PpIX accumulation in non-infected erythrocytes and leukocytes (P. yoelii [8]; [18]): significant concentrations of PpIX did not accumulate
PpIX accumulation in plasmodia within erythrocytes (P. yoelii [8]; [18]): accumulated within many of the plasmodia
implantations in uterine horns treated with ALA ([9]; 4 mg ALA, light, breeding 60-70 days after photodynamic treatment, n=6): no implantations
rats pregnant in ALA treated uterine horns ([9]; 8 mg ALA, light, breeding 60-70 days after treatment, n=7, saline horns 7 of 7): 2 of 7
endometrial histology after photodynamic treatment ([9]; despite hormonal stimulus of contralateral pregnancy): atrophic endometrium
PpIX accumulation in non-infected erythrocytes and leukocytes (P. chabaudi [10]): significant concentrations of PpIX did not accumulate
PpIX accumulation in plasmodia within erythrocytes (P. chabaudi [10]): accumulated within many of the plasmodia
PpIX accumulation in non-infected erythrocytes and leukocytes (P. chabaudi [11]; [19]): significant concentrations of PpIX did not accumulate
PpIX accumulation in plasmodia within erythrocytes (P. chabaudi [11]; [19]): accumulated in many of the plasmodia
ability of plasmodia to accumulate calcein from calcein-AM (P. chabaudi [11]; [20]): lost their normal ability to accumulate calcein
ability of plasmodia to cause malaria in recipient mice (P. chabaudi [11]; [20]): lost their ability to cause malaria when injected into recipient mice
accumulation of fluorescing concentrations of PpIX (P. chabaudi [11]; [15]): ALA-induced fluorescence
accumulation of photosensitizing concentrations of PpIX (P. chabaudi [11]; [15]): ALA-induced photosensitization
damage to non-infected erythrocytes and leukocytes (P. chabaudi [11]; mouse, in vivo): showed no morphological evidence of damage
fluorescence in endometrium [12]: Fluorescence was observed throughout the endometrium of all slices
fluorescence in myometrium [12]: No fluorescence was observed
